Reference: PubChem BioAssay (NCI)
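Results reflect a 48-hour exposure of cells in 96-well plates to compound at five concentrations. The concentration for full growth arrest is given as TGI.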

How the values were obtained:
Test in all cases: growth of human tumour cells (NCI), 48 h
A498 renal = test system: A498 renal
HL-60(TB) leukemia = test system: HL-60(TB) leukemia
HOP-62 NSCLC = test system: HOP-62 NSCLC
HOP-92 NSCLC = test system: HOP-92 NSCLC
HS 578T breast = test system: HS 578T breast
KM12 colon = test system: KM12 colon
LOX IMVI melanoma = test system: LOX IMVI melanoma
M14 melanoma = test system: M14 melanoma
MDA-MB-231 breast = test system: MDA-MB-231 breast
MOLT-4 leukemia = test system: MOLT-4 leukemia
NCI/ADR-RES ovarian = test system: NCI/ADR-RES ovarian
OVCAR-3 ovarian = test system: OVCAR-3 ovarian
OVCAR-8 ovarian = test system: OVCAR-8 ovarian
PC-3 prostate = test system: PC-3 prostate
RPMI-8226 leukemia = test system: RPMI-8226 leukemia
SK-MEL-28 melanoma = test system: SK-MEL-28 melanoma
SNB-19 CNS = test system: SNB-19 CNS
SNB-75 CNS = test system: SNB-75 CNS
T-47D breast = test system: T-47D breast

SMILES	TGI (A498 renal)	TGI (HL-60(TB) leukemia)	TGI (HOP-62 NSCLC)	TGI (HOP-92 NSCLC)	TGI (HS 578T breast)	TGI (KM12 colon)	TGI (LOX IMVI melanoma)	TGI (M14 melanoma)	TGI (MDA-MB-231 breast)	TGI (MOLT-4 leukemia)	TGI (NCI/ADR-RES ovarian)	TGI (OVCAR-3 ovarian)	TGI (OVCAR-8 ovarian)	TGI (PC-3 prostate)	TGI (RPMI-8226 leukemia)	TGI (SK-MEL-28 melanoma)	TGI (SNB-19 CNS)	TGI (SNB-75 CNS)	TGI (T-47D breast)
CC(=O)NC1C(O)C(O)C(CO)OC1n1ncc(=O)[nH]c1=O (stereo not given)	> 100 µM	> 100 µM	> 100 µM	> 100 µM	> 100 µM	> 100 µM	> 100 µM	> 100 µM	> 100 µM	> 100 µM	> 100 µM	> 100 µM	> 100 µM	> 100 µM	> 100 µM	> 100 µM	> 100 µM	> 100 µM	> 100 µM
CCSC1=N/C(=C\c2ccco2)C(Cl)=N1	> 100 µM	> 100 µM	> 100 µM	> 100 µM	> 100 µM	> 100 µM	> 100 µM	> 100 µM	> 100 µM	> 100 µM	> 100 µM	> 100 µM	> 100 µM	> 100 µM	> 100 µM	> 100 µM	> 100 µM	> 100 µM	> 100 µM
CCN(CC)C(=S)SNCc1ccc(S(N)(=O)=O)cc1	> 100 µM	22.8 µM	30.5 µM	45.7 µM	50.4 µM	29.2 µM	28.8 µM	25.1 µM	37.1 µM	> 62.2 µM	41.8 µM	27.5 µM	28.4 µM	26.1 µM	22.8 µM	> 48.9 µM	34.1 µM	39.5 µM	47.7 µM
COc1ccc(NC(C)=O)cc1C1CCC(=O)N1 (stereo not given)	> 100 µM	> 100 µM	> 100 µM	> 100 µM	> 100 µM	> 100 µM	> 100 µM	> 100 µM	> 100 µM	> 100 µM	> 100 µM	> 100 µM	> 100 µM	> 100 µM	> 100 µM	> 100 µM	> 100 µM	> 100 µM	> 100 µM
OC(C/C(=N\N1CCCCC1)c1cccs1)(C(F)(F)F)C(F)(F)F	> 10 µM	> 10 µM	> 10 µM	> 10 µM	> 10 µM	> 10 µM	> 10 µM	> 10 µM	> 10 µM	> 10 µM	> 10 µM	> 10 µM	> 10 µM	> 10 µM	> 10 µM	> 10 µM	> 10 µM	> 10 µM	> 10 µM
